{
  "source": "patent US10689708B2",
  "about": "“Methods for treating diffuse large B-cell lymphoma and the use of biomarkers as a predictor of responsiveness to drugs” (Celgene Corporation, priority 2015, dated 2020)",
  "tested_on": "relapsed or refractory DLBCL",
  "assay": "Compound A treatment of relapsed or refractory DLBCL patients stratified by 26-gene (Table 2) classifier: PFS and tumor measurement",
  "format": "in vivo, human",
  "settings": "for PFS: Compound A treatment (FIG. 3)",
  "source_text": "In another exemplary study, a computational decision function was applied to gene expression values for the 26 genes in Table 2 to predict the positive/negative outcome sub-group membership of relapsed or refractory DLBCL patients for responsiveness to Compound A treatment alone or in combination with other agents.\nThe response to Compound A treatment of each of a group of relapsed or refractory DLBCL patients was predicated based on the gene expression levels of 26 genes of Table 2, and the group of patients were classified into two populations—the population predicted to be responsive to Compound A treatment (26 genes positive population) and the other population predicted to be not responsive to Compound A (26 genes negative population).\nThe expression levels of the 26 genes were measured as follows: DLBCL lymph-node biopsies were formalin fixed and paraffin embedded. Nucleic acids obtained from the tissues were extracted using the Roche High Pure FPPET kit, according to the manufacturer's instructions. The RNA was quantitated using spectrophotometry (NanoDrop, Thermo Science, DE). Gene expression on approximately 200 nanograms of RNA was used to determine gene expression levels by means of NanoString technology (NanoString Technologies, WA). The total RNA was hybridized to the custom codesets at 65° C. overnight. The reaction was processed on the nCounter™ Prep Station and gene expression data was then acquired on the nCounter™ Digital Analyzer.\nThen, the patients' response to Compound A treatment were measured by progression free survival (PFS). The results are shown in FIG. 3, and as shown, that there is a significant benefit, as measured by PFS, of 26 gene positive population (upper line) as compared to 26 genes negative population (lower line) (PFS 17.43 weeks in 26 genes positive population versus PFS 6.57 weeks in 26 genes negative population).\nAdditionally, the response to Compound A of DLBCL patients with historically poor prognosis was measured by Nanostring. […] This is comparison to patients in the 26 genes positive population (blue line), in which 4 patients obtained a durable clinical response of greater than 50% decrease in tumor size (see FIG. 8). Similar results were observed when examining patients with primary refractory DLBCL that had also had at least 3 or more prior lines of therapy (see FIG. 9).",
  "data": [
    {"compound": "Cc1nc2cccc(N)c2c(=O)n1C1CCC(=O)NC1=O", "note": "(centres unmarked) [Compound A, 3-(5-amino-2-methyl-4-oxo-4H-quinazolin-3-yl)-piperidine-2,6-dione]", "values": [
      {"measurement": "PFS at 6 months", "setting": "26 genes negative population", "result": 5.4, "unit": "%"},
      {"measurement": "PFS", "setting": "26 genes negative population", "result": 6.57, "unit": "weeks"},
      {"measurement": "PFS at 6 months", "setting": "26 genes positive population", "result": 44.6, "unit": "%"},
      {"measurement": "PFS", "setting": "26 genes positive population", "result": 17.43, "unit": "weeks"},
      {"measurement": "median PFS", "setting": "ABC subtype of DLBCL (FIG. 7)", "result": 12.1, "unit": "weeks"},
      {"measurement": "median PFS", "setting": "GCB subtype of DLBCL (FIG. 7)", "result": 15.6, "unit": "weeks"},
      {"measurement": "tumor measurement, clinical response", "setting": "majority of patients in the 26 genes negative population (FIG. 5)", "result": "rapid progression or short responses"},
      {"measurement": "tumor measurement, clinical response", "setting": "majority of patients in the 26 genes positive population (FIG. 4)", "result": "clinical response of greater than 50% decrease in tumor size and/or have stable disease"},
      {"measurement": "tumor measurement, clinical course", "setting": "primary refractory disease (less than complete response to R-CHOP), 26 genes negative population (FIG. 8)", "result": "experienced rapid progression"},
      {"measurement": "patients who obtained a durable clinical response of greater than 50% decrease in tumor size", "setting": "primary refractory disease (less than complete response to R-CHOP), 26 genes positive population (FIG. 8)", "result": 4, "unit": "patients"},
      {"measurement": "median PFS", "setting": "unclassified subtype of DLBCL (FIG. 7)", "result": 7, "unit": "weeks"}
    ]}
  ]
}
